Assay results from US8962608B2, “Cycloalkylnitrile pyrazole carboxamides as janus kinase inhibitors” (Merck Sharp & Dohme Corp., priority 2011, dated 2015).

How the values were obtained:
[1] = biological target: JAK1 (recombinant purified GST-tagged catalytic domain) (Homo sapiens (Human), UniProt P23458); experiment: biochemical;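 further: biochemical assay with HTRF read-out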
[2] = biological target: JAK2 (recombinant purified GST-tagged catalytic domain) (Homo sapiens (Human), UniProt O60674); experiment: biochemical;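 further: biochemical JAK kinase assay with HTRF detection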
Chain of JAK2 (recombinant purified GST-tagged catalytic domain) (O60674 849-1124): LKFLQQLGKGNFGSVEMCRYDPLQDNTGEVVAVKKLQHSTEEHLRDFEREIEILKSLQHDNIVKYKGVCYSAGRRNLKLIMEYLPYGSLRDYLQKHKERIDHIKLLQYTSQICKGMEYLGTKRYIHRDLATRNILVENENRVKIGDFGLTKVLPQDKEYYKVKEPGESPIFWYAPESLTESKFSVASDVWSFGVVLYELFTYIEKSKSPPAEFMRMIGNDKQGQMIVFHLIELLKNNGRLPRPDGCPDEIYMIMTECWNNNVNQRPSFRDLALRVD

Chain of JAK1 (recombinant purified GST-tagged catalytic domain) (P23458 875-1153): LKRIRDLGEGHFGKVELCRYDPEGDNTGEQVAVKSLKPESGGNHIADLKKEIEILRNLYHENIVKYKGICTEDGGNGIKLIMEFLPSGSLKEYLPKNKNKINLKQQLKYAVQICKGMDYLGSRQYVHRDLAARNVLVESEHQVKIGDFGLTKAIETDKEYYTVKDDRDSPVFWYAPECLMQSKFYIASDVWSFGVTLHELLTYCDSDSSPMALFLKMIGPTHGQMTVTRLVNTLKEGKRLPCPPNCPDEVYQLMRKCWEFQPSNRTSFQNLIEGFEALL

| IC50 [1] [nM] | IC50 [2] [nM] | Compound |
| --- | --- | --- |
| 2 | 9 | N#C[C@H]1CCCC[C@@H]1n1cc(C(N)=O)c(Nc2ccc(C(F)(F)F)nc2)n1 (single isomer, unassigned) [Example 17-101, 1-[(1S,2S or 1R,2R)-2-cyanocyclohexyl]-3-{[6-(trifluoromethyl)pyridin-3-yl]amino}-1H-pyrazole-4-carboxamide] |
| 0.2 | 26 | CC(C)(C)N[C@H]1CCC(n2cc(C(N)=O)c(Nc3ccc(C(F)(F)F)cc3)n2)[C@@H](C#N)C1 (single isomer, unassigned) [Example 28-204, 1-[(1S,2S,4S or 1R,2R,4R)-4-(tert-butylamino)-2-cyanocyclohexyl]-3-{[4-(trifluoromethyl)phenyl]amino}-1H-pyrazole-4-carboxamide] |
| 0.16 | 2 | N#C[C@H]1CCCCC1n1cc(C(N)=O)c(Nc2ccc(S(=O)(=O)CF)cc2)n1 (mixture of isomers) [Example 17-65, 1-[(1S,2S and 1R,2R)-2-cyanocyclohexyl]-3-({4-[(fluoromethyl)sulfonyl]phenyl}amino)-1H-pyrazole-4-carboxamide] |
| 1 | 9 | Cc1cccc(C)c1NS(=O)(=O)c1ccc(Nc2nn([C@H]3CCCC[C@@H]3C#N)cc2C(N)=O)cc1 (single isomer, unassigned) [Example 17-88, 1-[(1R,2R or 1S,2S)-2-cyanocyclohexyl]-3-({4-[(2,6-dimethylphenyl)sulfamoyl]phenyl}amino)-1H-pyrazole-4-carboxamide] |
| 0.5 | 2 | N#C[C@H]1CCCC[C@@H]1n1cc(C(N)=O)c(Nc2ccc(S(=O)(=O)NCCN3CCCC3)cc2)n1 (single isomer, unassigned) [Example 17-87, 1-[(1R,2R or 1S,2S)-2-cyanocyclohexyl]-3-({4-[(2-pyrrolidin-1-ylethyl)sulfamoyl]phenyl}amino)-1H-pyrazole-4-carboxamide] |
| 0.3 | 33 | C[N+]1([C@H]2CC[C@H](n3cc(C(N)=O)c(Nc4ccc(C(F)(F)F)cc4)n3)[C@@H](C#N)C2)CCC1 (single isomer, unassigned) [Example 31-1, 1-((1S,3S,4S or 1R,3R,4R)-4-(4-carbamoyl-3-((4-(trifluoromethyl)phenyl)amino)-1H-pyrazol-1-yl)-3-cyanocyclohexyl)-1-methylazetidin-1-ium 2,2,2-trifluoroacetate] |
| 2 | 20 | N#C[C@H]1C[C@@H](O)CC[C@@H]1n1cc(C(N)=O)c(Nc2ccc(Cl)c(Cl)c2)n1 (single isomer, unassigned) [Example 33-20, 1-[(1S,2S,4S or 1R,2R,4R)-2-cyano-4-hydroxycyclohexyl]-3-[(3,4-dichlorophenyl)amino]-1H-pyrazole-4-carboxamide] |

More lines, now with the values behind:

| Compound | IC50 [1] [nM] | IC50 [2] [nM] |
| --- | --- | --- |
| CN([C@@H]1CC[C@H](n2cc(C(N)=O)c(Nc3ccc(Cl)cc3)n2)[C@@H](C#N)C1)S(C)(=O)=O (racemic) [Example 38-5, 3-[(4-chlorophenyl)amino]-1-{(1S,2S,4R and 1R,2R,4S)-2-cyano-4-[methyl(methylsulfonyl)amino]cyclohexyl}-1H-pyrazole-4-carboxamide] | 12 | 46 |
| CN[C@@H]1CC[C@H](n2cc(C(N)=O)c(Nc3ccc(Cl)cc3)n2)[C@@H](C#N)C1 (single isomer, unassigned) [Example 28-42, 3-[(4-chlorophenyl)amino]-1-[(1S,2S,4R or 1R,2R,4S)-2-cyano-4-(methylamino)cyclohexyl]-1H-pyrazole-4-carboxamide] | 2 | 36 |
| CC1CN([C@H]2CC[C@H](n3cc(C(N)=O)c(Nc4ccc(Cl)cc4)n3)[C@@H](C#N)C2)C1 (single isomer, unassigned) [Example 28-96, 3-[(4-chlorophenyl)amino]-1-[(1S,2S,4S or 1R,2R,4R)-2-cyano-4-(3-methylazetidin-1-yl)cyclohexyl]-1H-pyrazole-4-carboxamide] | 2 | 85 |
| CC1(C)CN([C@H]2CC[C@H](n3cc(C(N)=O)c(Nc4ccccc4)n3)[C@@H](C#N)C2)C1 (single isomer, unassigned) [Example 28-138, 1-[(1S,2S,4S or 1R,2R,4R)-2-cyano-4-(3,3-dimethylazetidin-1-yl)cyclohexyl]-3-(phenylamino)-1H-pyrazole-4-carboxamide] | 0.9 | 40 |
| N#C[C@H]1C[C@H](N2C[C@@H]3[C@@H](CO)[C@@H]3C2)CC[C@@H]1n1cc(C(N)=O)c(Nc2ccc(C(F)(F)F)cc2)n1 (single isomer, unassigned) [Example 28-15, 1-{(1S,2S,4R or 1R,2R,4S)-2-cyano-4-[(1R,5S,6R or 1S,5R,6S)-6-(hydroxymethyl)-3-azabicyclo[3.1.0]hex-3-yl]cyclohexyl}-3-{[4-(trifluoromethyl)phenyl]amino}-1H-pyrazole-4-carboxamide] | 0.9 | 22 |
| CS(=O)(=O)C1CN(C(=O)[C@H]2CC[C@H](n3cc(C(N)=O)c(Nc4ccc(Cl)cc4)n3)[C@@H](C#N)C2)C1 (single isomer, unassigned) [Example 35-26, 3-[(4-chlorophenyl)amino]-1-[(1S,2S,4S or 1R,2R,4R)-2-cyano-4-{[3-(methylsulfonyl)azetidin-1-yl]carbonyl}cyclohexyl]-1H-pyrazole-4-carboxamide] | 2 | 49 |
| CS(=O)(=O)N[C@H]1CC[C@H](n2cc(C(N)=O)c(Nc3ccc(Cl)cc3)n2)[C@@H](C#N)C1 (racemic) [Example 38-4, 3-[(4-chlorophenyl)amino]-1-{(1S,2S,4R and 1R,2R,4S)-2-cyano-4-[(methylsulfonyl)amino]cyclohexyl}-1H-pyrazole-4-carboxamide] | 0.5 | 5 |
| N#C[C@@H]1C[C@H](C(=O)NC2CC2)CC[C@H]1n1cc(C(N)=O)c(Nc2ccc(Cl)cc2)n1 (single isomer, unassigned) [Example 35-19, 3-[(4-chlorophenyl)amino]-1-[(1R,2R,4R or 1S,2S,4S)-2-cyano-4-(cyclopropylcarbamoyl)cyclohexyl]-1H-pyrazole-4-carboxamide] | 5 | 23 |
| N#C[C@@H]1C[C@H](C(=O)NC(C2CC2)C2CC2)CC[C@H]1n1cc(C(N)=O)c(Nc2ccc(Cl)cc2)n1 (single isomer, unassigned) [Example 35-5, 3-[(4-chlorophenyl)amino]-1-{(1R,2R,4R or 1S,2S,4S)-2-cyano-4-[(dicyclopropylmethyl)carbamoyl]cyclohcxyl}-1H-pyrazole-4-carboxamide] | 13 | 169 |
| N#C[C@H]1C[C@@H](NCC(F)F)CC[C@@H]1n1cc(C(N)=O)c(Nc2ccc(Cl)c(F)c2)n1 (single isomer, unassigned) [Example 28-90, 3-[(4-chloro-3-fluorophenyl)amino]-1-{(1S,2S,4S or 1R,2R,4R)-2-cyano-4-[(2,2-difluoroethyl)amino]cyclohexyl}-1H-pyrazole-4-carboxamide] | 4 | 35 |
| C[C@H](N[C@H]1CC[C@H](n2cc(C(N)=O)c(Nc3ccc(OC(F)(F)F)cc3)n2)[C@@H](C#N)C1)C1CC1 (single isomer, unassigned) [Example 28-91, 1-[(1S,2S,4S or 1R,2R,4R)-2-cyano-4-{[(1S)-1-cyclopropylethyl]amino}cyclo-hexyl]-3-{[4-(trifluoromethoxy)phenyl]amino}-1H-pyrazole-4-carboxamide] | 1 | 65 |
